# Measurements taken from patent US20100240713A1, “AROMATIC AND HETEROAROMATIC COMPOUNDS USEFUL IN TREATING IRON DISORDERS” (XENON PHARMACEUTICALS INC., priority 2007, published 2010).
# Structures can show the parent of a compound that is named as a salt.
# Tested on: not given
# Experiment: not given
# Settings: not given
row,Structure (SMILES),melting point
1,"Cc1c(C)c(CSC(=N)N)c(C)c(CSC(=N)N)c1C (as salt: hydrochloride) [Example 3.5, (2,4,5,6-tetramethyl-1,3-phenylene)bis(methylene)dicarbamimidothioate dihydrochloride]",> 260 °C
2,"N=C(N)SCc1nnc(CSC(=N)N)n1N (as salt: hydrochloride) [Example 3.7, (4-amino-4H-1,2,4-triazole-3,5-diyl)bis(methylene)dicarbamimidothioate dihydrochloride]",213 °C (dec.)
3,"Cc1cc(C)c(C(C)SC(=N)N)c(C)c1C(C)SC(=N)N (stereo not shown) (as salt: hydrobromid) [Example 6.1, 2-{1-[3-(1-carbamimidoylsulfanylethyl)-2,4,6-trimethylphenyl]ethyl}-isothiourea dihydrobromide]",204 to 206 °C
4,"N=C(N)SCc1n[nH]c(CSC(=N)N)n1 (as salt: hydrochloride) [Example 3.8, (1H-1,2,4-triazole-3,5-diyl)bis(methylene)dicarbamimidothiodate dihydrochloride]",196 to 200 °C
5,"Cc1c(O)c(C)c(CSC(=N)N)c(C)c1CSC(=N)N (as salt: hydrochloride) [Example 3.19, (5-hydroxy-2,4,6-trimethyl-1,3-phenylene)bis(methylene) dicarbamimidothioate dihydrochloride]",175 to 178 °C
6,"CC(C)(SC(=N)N)c1cccc(C(C)(C)SC(=N)N)c1 (as salt: hydrobromid) [Example 6, 2-{1-[3-(1-carbamimidoylsulfanyl-1-methylethyl)phenyl]-1-methylethyl}-isothiourea dihydrobromide]",142 to 144 °C
7,"N=C(N)SCc1cccc(CSC(=N)N)n1 (as salt: hydrobromid) [Example 3.12, pyridine-2,6-diylbis(methylene)dicarbamimidothioate dihydrobromide]",208 to 210 °C
8,"N=C(N)SC(=O)c1sc(C(=O)SC(=N)N)c(Cl)c1Cl (as salt: hydrochloride) [Example 9, 2-(5-carbamimidoylsulfanecarbonyl-3,4-dichlorothiophene-2-carbonyl)isothiourea dihydrochloride]",215 to 218 °C
9,"Cc1cc(CSC(=N)N)cc(CSC(=N)N)c1 (as salt: hydrobromid) [Example 3.3, (5-methyl-1,3-phenylene)bis(methylene)dicarbamimidothioate dihydrobromide]",240 to 241 °C
10,"Cc1cc(C)c(CNC(=N)N)c(C)c1CNC(=N)N (as salt: toluenesulfonate) [Example 1, N-(3-guanidinomethyl-2,4,6-trimethylbenzyl)guanidine, bis(p-toluenesulfonate)]",> 250 °C
11,"COc1c(CSC(=N)N)cc(C)cc1CSC(=N)N (as salt: hydrobromid) [Example 3.18, (2-methoxy-5-methyl-1,3-phenylene)bis(methylene)dicarbamimidothioate dihydrobromide]",236 to 239 °C
12,"N=C(N)SCc1cccc2cccc(CSC(=N)N)c12 (as salt: hydrobromid) [Example 3.13, naphthalene-1,8-diylbis(methylene)dicarbamimidothioate dihydrobromide]",230 to 233 °C
13,"Cc1nc(C)c(CSC(=N)N)c(C)c1CSC(=N)N (as salt: hydrochloride) [Example 8, (2,4,6-trimethylpyridine-3,5-diyl)bis(methylene)dicarbamimidothioate dihydrochloride]",185 to 187 °C
14,"Cc1c(CSC(=N)N)cc(CSC(=N)N)c(C)c1Br (as salt: hydrochloride) [Example 3.17, (5-bromo-4,6-dimethyl-1,3-phenylene)bis(methylene) dicarbamimidothioate dihydrochloride]",270 to 273 °C
15,"N=C(N)Cc1cccc(CC(=N)N)c1 [Example 4, 2,2′-(1,3-phenylene)diacetimidamide]",200 to 205 °C
16,"CNC(=N)SCc1c(C)cc(C)c(CSC(=N)NC)c1C.Cl [Example 7, 1,3-di[(methylamidino)thiomethyl]-2,4,6-trimethylbenzene 4-methylbenzenesulfonate hydrochloride]",223 to 225 °C
17,"CN/C(=N\C#N)NCc1c(C)cc(C)c(CN/C(=N/C#N)NC)c1C [Example 2, 1,3-di[(2-cyano-3-methylguanidino)methyl]-2,4,6-trimethylbenzene]",270 to 272 °C
18,"Cc1cc(C)c(CSC(=N)N)cc1CSC(=N)N (as salt: hydrochloride) [Example 3.16, (4,6-dimethyl-1,3-phenylene)bis(methylene)dicarbamimidothioate dihydrochloride]",248 to 251 °C
19,"Cc1c(CSC(=N)N)cccc1CSC(=N)N (as salt: hydrobromid) [Example 3.21, (2-methyl-1,3-phenylene)bis(methylene)dicarbamimidothioate dihydrobromide]",258 to 261 °C
20,"Cc1c(C)c(C)c(CSC(=N)N)c(CSC(=N)N)c1C (as salt: hydrobromid) [Example 3.22, (3,4,5,6-tetramethyl-1,2-phenylene)bis(methylene)dicarbamimidothioate dihydrobromide]",> 265 °C
21,"N=C(N)SCc1c(Cl)c(Cl)c(Cl)c(CSC(=N)N)c1Cl (as salt: hydrochloride) [Example 3.6, (2,4,5,6-tetrachloro-1,3-phenylene)bis(methylene)dicarbamimidothioate dihydrochloride]",208 to 210 °C
22,"Cc1cc(CSC(=N)N)c(O)c(CSC(=N)N)c1 (as salt: hydrobromid) [Example 6.2, (2-hydroxy-5-methyl-1,3-phenylene)bis(methylene)dicarbamimidothioate dihydrobromide]",223 to 225 °C
23,"CC(C)c1cc(C(C)C)c(CSC(=N)N)cc1CSC(=N)N (as salt: hydrobromid) [Example 3.1, (4,6-diisopropyl-1,3-phenylene)bis(methylene)dicarbamimidothioate dihydrobromide]",208 to 210 °C
24,"N#Cc1c(CSC(=N)N)cccc1CSC(=N)N (as salt: hydrobromid) [Example 3.14, (2-cyano-1,3-phenylene)bis(methylene)dicarbamimidothioate dihydrobromide]",270 to 272 °C (dec.)
25,"CCOC(=O)c1cc(C(=O)OCC)c(CSC(=N)N)cc1CSC(=N)N (as salt: hydrobromid) [Example 3.4, diethyl 4,6-bis(carbamimidoylthiomethyl)isophthalate dihydrobromide]",237 to 238 °C

# Molecular target: T1, DMT1 (Homo sapiens, UniProt P49281)
# T1 sequence (P49281 1-568): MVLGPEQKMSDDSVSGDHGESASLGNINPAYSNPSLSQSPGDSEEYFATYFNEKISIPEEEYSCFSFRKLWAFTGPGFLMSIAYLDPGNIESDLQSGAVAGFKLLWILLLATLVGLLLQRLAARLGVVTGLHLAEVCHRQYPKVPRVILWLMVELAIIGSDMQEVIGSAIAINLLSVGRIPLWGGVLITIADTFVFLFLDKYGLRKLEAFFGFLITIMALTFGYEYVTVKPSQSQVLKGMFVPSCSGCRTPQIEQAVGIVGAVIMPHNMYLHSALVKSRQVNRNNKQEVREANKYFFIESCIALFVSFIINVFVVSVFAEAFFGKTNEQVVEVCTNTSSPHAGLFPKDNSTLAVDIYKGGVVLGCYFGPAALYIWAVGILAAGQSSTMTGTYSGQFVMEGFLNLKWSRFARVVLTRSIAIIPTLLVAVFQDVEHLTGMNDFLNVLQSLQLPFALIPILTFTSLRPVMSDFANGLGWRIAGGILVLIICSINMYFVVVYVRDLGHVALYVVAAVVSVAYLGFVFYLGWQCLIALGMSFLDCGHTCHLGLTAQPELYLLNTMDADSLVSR
# Experiment: DMT1 activity assay (IC50 activity level, Table 1)
# Format: cell-based
# Settings: inhibition of DMT1
# Excerpt: This example discloses various in vitro assay for testing and profiling test agents against DMT1 stably expressed in cells of either an endogenous or recombinant origin. These assays can use stable cell lines overexpressing DMT1 or intestinal cells and intestinal tissue expressing endogenous DMT1. DMT1 function could also be assessed in other cell types that express DMT1. Of greatest relevance would be the erythrocytes (e.g. K562 cells) or hepatocytes (e.g. […]).
# DMT1 function can be assessed in a number of ways, including monitoring fluorescence changes of an iron fluorophore (e.g. calcein), monitoring uptake of radiolabelled iron (^55Fe or ^59Fe) (Picard et al., J. Biol. Chem., 2000, 275(46):35738-45 and Wetli et al., Chem. Biol. 2006 September; 13(9):965-72), or by assessing the current or transport of iron and other metals into the cells or tissues using standard electrophysiological techniques (Gunshin et al., Nature, 1997, 388(6641):482-8.).
# Variations of these assays involve alterations of incubation times, the iron status of the cells and tissues (which may be modulated by chemical chelators or by harvesting from iron deficient animals), the metal cation detected and the pH of the reaction can generally be made by conventional techniques known to those skilled in the art.
# The Example numbers provided in Table 1 correspond to the Examples herein: […]
row,Structure (SMILES),IC50
1,"N=C(N)Cc1cccc(CC(=N)N)c1 [Example 4, 2,2′-(1,3-phenylene)diacetimidamide]",≥ 1 µM
2,"CNC(=N)SCc1c(C)cc(C)c(CSC(=N)NC)c1C.Cl [Example 7, 1,3-di[(methylamidino)thiomethyl]-2,4,6-trimethylbenzene 4-methylbenzenesulfonate hydrochloride]",≥ 1 µM
3,"CN/C(=N\C#N)NCc1c(C)cc(C)c(CN/C(=N/C#N)NC)c1C [Example 2, 1,3-di[(2-cyano-3-methylguanidino)methyl]-2,4,6-trimethylbenzene]",≥ 1 µM
